Source: PubChem BioAssay AID342 (DTP/NCI, 2004)
Where “and” joins values, the source holds several entries; their conditions need not be identical. Equal entries are not always repeated.

Tested on: Swiss mice, Sarcoma 180 sc, mean tumor weight T/C
Assay: NCI In Vivo Anticancer Drug Screen. Data for tumor model Sarcoma 180 (subcutaneous) in Swiss mice
Details: endpoint: mean tumor weight, higher = larger tumour
Method in brief: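 Readout is the ratio of treated-group measurement to vehicle-control measurement (T/C), based on survival or tumor size in mice carrying transplanted tumors.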

[1] = dose: 12.5 mg/kg/injection, schedule: Q01DX007 (ip), vehicle: carboxymethylcellulose (CMC)
[2] = dose: 25.0 mg/kg/injection, schedule: Q01DX007 (ip), vehicle: carboxymethylcellulose (CMC)
[3] = dose: 50.0 mg/kg/injection, schedule: Q#A X014 (sc), vehicle: steriod suspending solution

`CN=C(N)c1ccc(N=C(N)c2ccc(C(N)=Nc3ccc(C(N)=NC)cc3)cc2)cc1` was tested, and the T/C [1] was 124 % of control, the T/C [2] was 86 % of control and the T/C (dose: 50.0 mg/kg/injection, schedule: Q01DX007 (ip), vehicle: carboxymethylcellulose (CMC)) was 80 % of control.
`CN(C)c1ccc2c(c1)Cc1cc(N=C3C=CC(=O)O3)ccc1-2` was tested, and the T/C (dose: 48.0 mg/kg/injection, schedule: Q01DX007 (ip), vehicle: other) was 83 % of control, the T/C (dose: 73.0 mg/kg/injection, schedule: Q01DX007 (ip), vehicle: other) was 101 % of control and the T/C (dose: 166.0 mg/kg/injection, schedule: Q01DX007 (ip), vehicle: other) was 40 % of control and 65 % of control.
For `CC1=C(/C=C/C(C)=N/NC(N)=S)C(C)(C)CCC1`, the T/C (dose: 20.0 mg/kg/injection, schedule: Q01DX007 (ip), vehicle: other) was 48 % of control and 66 % of control.
`CCC(c1ccc(O)cc1)C(CC)c1ccc(OC)cc1` (stereo unspecified) was tested, and the T/C (dose: 2.0 mg/kg/injection, schedule: Q#A X014 (sc), vehicle: steriod suspending solution) was 45 % of control and 53 % of control, the T/C (dose: 2.35 mg/kg/injection, schedule: Q#A X014 (ip), vehicle: methylcellulose (MC)) was 25 % of control and the T/C (dose: 3.5 mg/kg/injection, schedule: Q#A X014 (ip), vehicle: methylcellulose (MC)) was 32 % of control. The T/C (dose: 5.0 mg/kg/injection, schedule: Q#A X014 (ip), vehicle: methylcellulose (MC)) was 40 % of control, the T/C (dose: 5.5 mg/kg/injection, schedule: Q#A X014 (sc), vehicle: steriod suspending solution) was 39 % of control and 52 % of control and the T/C (dose: 7.5 mg/kg/injection, schedule: Q#A X014 (ip), vehicle: methylcellulose (MC)) was 41 % of control. For the same compound, the T/C (dose: 8.5 mg/kg/injection, schedule: Q#A X014 (ip), vehicle: distilled water + alcohol) was 15 % of control, the T/C (dose: 12.5 mg/kg/injection, schedule: Q#A X014 (ip), vehicle: distilled water + alcohol) was 27 % of control and the T/C (dose: 16.5 mg/kg/injection, schedule: Q#A X014 (sc), vehicle: steriod suspending solution) was 35 % of control and 48 % of control. For the same compound, the T/C (dose: 18.5 mg/kg/injection, schedule: Q#A X014 (ip), vehicle: distilled water + alcohol) was 12 % of control, the T/C (dose: 27.5 mg/kg/injection, schedule: Q#A X014 (ip), vehicle: distilled water + alcohol) was 19 % of control and the T/C (dose: 27.5 mg/kg/injection, schedule: Q#A X014 (ip), vehicle: olive oil, sesame oil, peanut oil) was 49 % of control. The T/C (dose: 27.75 mg/kg/injection, schedule: Q#A X014 (ip), vehicle: methylcellulose (MC)) was 24 % of control and 46 % of control, the T/C (dose: 41.5 mg/kg/injection, schedule: Q#A X014 (ip), vehicle: olive oil, sesame oil, peanut oil) was 48 % of control and the T/C (dose: 41.65 mg/kg/injection, schedule: Q#A X014 (ip), vehicle: methylcellulose (MC)) was 20 % of control and 24 % of control. The T/C [3] was 33 % of control and 36 % of control, the T/C (dose: 62.5 mg/kg/injection, schedule: Q#A X014 (ip), vehicle: methylcellulose (MC)) was 20 % of control and 32 % of control and the T/C (dose: 62.5 mg/kg/injection, schedule: Q#A X014 (ip), vehicle: olive oil, sesame oil, peanut oil) was 69 % of control. The T/C (dose: 94.0 mg/kg/injection, schedule: Q#A X014 (ip), vehicle: methylcellulose (MC)) was 28 % of control and 36 % of control, the T/C (dose: 94.0 mg/kg/injection, schedule: Q#A X014 (ip), vehicle: olive oil, sesame oil, peanut oil) was 42 % of control and the T/C (dose: 150.0 mg/kg/injection, schedule: Q#A X014 (sc), vehicle: steriod suspending solution) was 29 % of control and 44 % of control.
For `O=[N+]([O-])c1cccc2nsnc12`, the T/C [1] was 114 % of control and the T/C [2] was 174 % of control.
`CC(=O)OCC1OC(n2cnc3c(=S)nc(N)[nH]c32)C(OC(C)=O)C1OC(C)=O` (stereo unspecified) was tested, and the T/C (dose: 3.0 mg/kg/injection, schedule: Q01DX007 (ip), vehicle: other) was 12 % of control, the T/C (dose: 3.0 mg/kg/injection, schedule: Q01DX007 (ip), vehicle: saline) was 64 % of control and the T/C (dose: 4.4 mg/kg/injection, schedule: Q01DX007 (ip), vehicle: other) was 6 % of control. The T/C (dose: 6.6 mg/kg/injection, schedule: Q01DX007 (ip), vehicle: carboxymethylcellulose (CMC)) was 43 % of control, the T/C (dose: 6.6 mg/kg/injection, schedule: Q01DX007 (ip), vehicle: other) was 18 % of control and 29 % of control and the T/C (dose: 10.0 mg/kg/injection, schedule: Q01DX007 (ip), vehicle: carboxymethylcellulose (CMC)) was 28 % of control. The T/C (dose: 10.0 mg/kg/injection, schedule: Q01DX007 (ip), vehicle: other) was 51 % of control, the T/C (dose: 15.0 mg/kg/injection, schedule: Q01DX007 (ip), vehicle: carboxymethylcellulose (CMC)) was 9 % of control and the T/C (dose: 15.0 mg/kg/injection, schedule: Q01DX007 (ip), vehicle: other) was 6 % of control and 24 % of control. For the same compound, the T/C (dose: 22.0 mg/kg/injection, schedule: Q01DX007 (ip), vehicle: carboxymethylcellulose (CMC)) was 9 % of control, the T/C (dose: 22.0 mg/kg/injection, schedule: Q01DX007 (ip), vehicle: other) was 3 % of control and 10 % of control and the T/C (dose: 33.0 mg/kg/injection, schedule: Q01DX007 (ip), vehicle: other) was 11 % of control.
With `CC(=O)C1=C(O)C2(O)C(=O)c3c(c(C)c4ccc(C)c(O)c4c3O)CC2C(N)C1=O` (stereo unspecified) the T/C (dose: 18.8 mg/kg/injection, schedule: Q01DX007 (ip), vehicle: saline) was 114 % of control, the T/C (dose: 37.5 mg/kg/injection, schedule: Q01DX007 (ip), vehicle: saline) was 112 % of control and the T/C (dose: 75.0 mg/kg/injection, schedule: Q01DX007 (ip), vehicle: saline) was 81 % of control. The T/C (dose: 150.0 mg/kg/injection, schedule: Q01DX007 (ip), vehicle: saline) was 104 % of control.
In the case of `CCCC(=O)OCC1OC(n2cnc3c(=S)nc[nH]c32)C(OC(=O)CCC)C1OC(=O)CCC` (stereo unspecified), the T/C (dose: 250.0 mg/kg/injection, schedule: Q01DX007 (ip), vehicle: carboxymethylcellulose (CMC)) is reported as 36 % of control.
In the case of `COc1ccc2c(c1)CC[C@@H]1[C@@H]2CC[C@@]2(C)[C@H]1CC[C@]2(C)O`, the T/C (dose: 0.5 mg/kg/injection, schedule: Q#A X014 (sc), vehicle: steriod suspending solution) is reported as 80 % of control, the T/C (dose: 5.0 mg/kg/injection, schedule: Q#A X014 (sc), vehicle: steriod suspending solution) is reported as 113 % of control and the T/C [3] is reported as 68 % of control.
In the case of `Cc1cc2nc3c(=O)[nH]c(=O)nc-3n(CCOC(=O)CCC(=O)O)c2cc1C`, the T/C (dose: 14.37 mg/kg/injection, schedule: Q#A X014 (ip), vehicle: carboxymethylcellulose (CMC)) is reported as 109 % of control, the T/C (dose: 28.75 mg/kg/injection, schedule: Q#A X014 (ip), vehicle: carboxymethylcellulose (CMC)) is reported as 122 % of control and the T/C (dose: 57.5 mg/kg/injection, schedule: Q#A X014 (ip), vehicle: carboxymethylcellulose (CMC)) is reported as 87 % of control. The T/C (dose: 115.0 mg/kg/injection, schedule: Q#A X014 (ip), vehicle: carboxymethylcellulose (CMC)) was 56 % of control.
With `C[C@]12CCC(=O)C=C1CC[C@H]1[C@@H]3CC[C@](O)(C(=O)CF)[C@@]3(C)C[C@H](O)[C@@]12F` the T/C (dose: 20.5 mg/kg/injection, schedule: Q#A X014 (sc), vehicle: steriod suspending solution) was 54 % of control, the T/C (dose: 31.0 mg/kg/injection, schedule: Q#A X014 (sc), vehicle: steriod suspending solution) was 62 % of control and the T/C (dose: 46.5 mg/kg/injection, schedule: Q#A X014 (sc), vehicle: steriod suspending solution) was 48 % of control.
For `CC[C@](C)(O)C(=O)O[C@H]1C(=O)O[C@@H]2C[C@H]3C(C)=C[C@H](O)[C@@H](O)[C@]3(C)[C@H]3[C@@]4(O)OC[C@]32[C@@H]1[C@@H](C)[C@H]4O`, the T/C (dose: 0.5 mg/kg/injection, schedule: Q01DX007 (sc), vehicle: olive oil, sesame oil, peanut oil) was 60 % of control, the T/C (dose: 1.0 mg/kg/injection, schedule: Q01DX007 (sc), vehicle: olive oil, sesame oil, peanut oil) was 64 % of control and the T/C (dose: 2.0 mg/kg/injection, schedule: Q01DX007 (sc), vehicle: olive oil, sesame oil, peanut oil) was 67 % of control. The T/C (dose: 4.0 mg/kg/injection, schedule: Q01DX007 (sc), vehicle: olive oil, sesame oil, peanut oil) was 77 % of control and 80 % of control, the T/C (dose: 6.0 mg/kg/injection, schedule: Q01DX007 (sc), vehicle: olive oil, sesame oil, peanut oil) was 97 % of control and the T/C (dose: 9.0 mg/kg/injection, schedule: Q01DX007 (sc), vehicle: olive oil, sesame oil, peanut oil) was 93 % of control.
In the case of `CC(=O)[C@H]1CC[C@H]2[C@@H]3CCC4=CC(=O)CC[C@]4(C)[C@H]3CC[C@]12C`, the T/C (dose: 125.0 mg/kg/injection, schedule: Q01DX007 (sc), vehicle: steriod suspending solution) is reported as 89 % of control, the T/C (dose: 250.0 mg/kg/injection, schedule: Q01DX007 (sc), vehicle: steriod suspending solution) is reported as 76 % of control and the T/C (dose: 500.0 mg/kg/injection, schedule: Q01DX007 (sc), vehicle: steriod suspending solution) is reported as 61 % of control. For the same compound, the T/C (dose: 1000.0 mg/kg/injection, schedule: Q01DX007 (sc), vehicle: steriod suspending solution) was 79 % of control.
For `O=C(Nc1ccc(NC2=NCCN2)cc1)c1ccc(C(=O)Nc2ccc(NC3=NCCN3)cc2)cc1`, the T/C (dose: 2.0 mg/kg/injection, schedule: Q01DX007 (ip), vehicle: saline) was 109 % of control, the T/C (dose: 4.0 mg/kg/injection, schedule: Q01DX007 (ip), vehicle: saline) was 95 % of control and the T/C (dose: 8.0 mg/kg/injection, schedule: Q01DX007 (ip), vehicle: saline) was 97 % of control. For the same compound, the T/C (dose: 16.0 mg/kg/injection, schedule: Q01DX007 (ip), vehicle: saline) was 43 % of control.
